One assay deals with PC-9 cells. Nature of the assay: PC9 proliferation assay. Conditions: Homo sapiens, PC-9, PC9; read-out: PC9 Prolif IC50 (G12V). Format: cell-based, human.
The target of a further assay is KRas(G12V) (Homo sapiens (Human), UniProt P01116, G12V). Nature of the assay: KRas(G12V) GDP HTRF (BODIPY-GDP exchange TR-FRET). Format: biochemical.
Another assay deals with KRas (Homo sapiens (Human), UniProt P01116). Nature of the assay: KRas GDP HTRF (BODIPY-GDP exchange TR-FRET). Format: biochemical. The method in brief:
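Inhibition of SOS1-mediated exchange of BODIPY-GDP on KRAS G12D, started with 3 nM recombinant human SOS1 and 300 nM BODIPY-GDP and read after 60 min. TR-FRET excitation 337 nm, ratio 520/490 nm ×10,000. IC50 from 4-parameter Hill fit of normalized data.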

Another assay deals with SW480 cells. Nature of the assay: SW480 proliferation assay. Format: cell-based. Conditions: Homo sapiens, SW480, SW480; read-out: SW480 Prolif IC50 (G12V).

Sequence of KRas (P01116-2 other isoform, or with tags, fused parts or gaps): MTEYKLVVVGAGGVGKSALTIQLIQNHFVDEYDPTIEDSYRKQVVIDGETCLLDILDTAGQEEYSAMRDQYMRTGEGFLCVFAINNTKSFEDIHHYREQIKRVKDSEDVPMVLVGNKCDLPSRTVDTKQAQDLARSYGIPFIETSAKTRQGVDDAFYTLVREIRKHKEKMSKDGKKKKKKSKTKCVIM
Sequence of KRas(G12V) (P01116-2 other isoform, or with tags, fused parts or gaps G12V): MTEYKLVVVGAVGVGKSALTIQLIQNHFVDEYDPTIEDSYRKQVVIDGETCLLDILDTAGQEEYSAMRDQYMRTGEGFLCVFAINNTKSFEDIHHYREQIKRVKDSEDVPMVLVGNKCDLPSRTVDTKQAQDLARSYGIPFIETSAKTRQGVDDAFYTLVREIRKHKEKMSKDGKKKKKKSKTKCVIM

Broadly, the IC50 is the concentration needed to halve the response being measured. In the case of `CN1CCOc2c(Cl)c(-c3cccc4sc(N)nc34)cc3nc(OC[C@@]45CCCN4C[C@H](F)C5)nc1c23` [Example 23, 4-(8-chloro-2-(((2R,7aS)-2-fluorotetrahydro-1H-pyrrolizin-7a(5H)-yl)methoxy)-4-methyl-5,6-dihydro-4H-[1,4]oxazepino[5,6,7-de]quinazolin-9-yl)benzo[d]thiazol-2-amine], the IC50 in the assay on PC-9 cells came out at 10000 nM; on KRas(G12V), 5.1 nM; against KRas it was 29 nM; with SW480 cells, 5100 nM.
With `Cc1cc(N)nc(-c2cc3nc(OC[C@@]45CCCN4C[C@H](F)C5)nc4c3c(c2Cl)OCCN4Cc2cn[nH]c2)c1C(F)(F)F` [Example 2, 6-(4-((1H-pyrazol-4-yl)methyl)-8-chloro-2-(((2R,7aS)-2-fluorotetrahydro-1H-pyrrolizin-7a(5H)-yl)methoxy)-5,6-dihydro-4H-[1,4]oxazepino[5,6,7-de]quinazolin-9-yl)-4-methyl-5-(trifluoromethyl)pyridin-2-amine], the IC50 came to 7700 nM with PC-9 cells, 11 nM against KRas(G12V), 25 nM at KRas and 11000 nM with SW480 cells.
For `COCC12COC(COc3nc4c5c(c(Cl)c(-c6nc(N)cc(C)c6C(F)(F)F)c(F)c5n3)OCCN4[C@H](C)c3cccnc3N)(C1)C2` [Example 149, 6-((R)-4-((R)-1-(2-aminopyridin-3-yl)ethyl)-8-chloro-10-fluoro-2-((4-(methoxymethyl)-2-oxabicyclo[2.1.1]hexan-1-yl)methoxy)-5,6-dihydro-4H-[1,4]oxazepino[5,6,7-de]quinazolin-9-yl)-4-methyl-5-(trifluoromethyl)pyridin-2-amine] the same measures were 16000 nM, 0.21 nM, 0.78 nM and 74 nM.
On the same counts, the results for `Cc1cc(N)nc(-c2c(Cl)c3c4c(nc(OC[C@@H]5CC(F)(F)CN5C)nc4c2F)N([C@H](C)c2cncnc2N)CCO3)c1C(F)(F)F` (atropisomer, axis not shown) [Example 83a, 5-((R)-1-((R)-9-(6-amino-4-methyl-3-(trifluoromethyl)pyridin-2-yl)-8-chloro-2-(((S)-4,4-difluoro-1-methylpyrrolidin-2-yl)methoxy)-10-fluoro-5,6-dihydro-4H-[1,4]oxazepino[5,6,7-de]quinazolin-4-yl)ethyl)pyrimidin-4-amine] are 5900 nM, 0.19 nM, 0.684 nM and 23 nM.
Consider `Cc1cc(N)nc(-c2c(Cl)c3c4c(nc(OC[C@@H]5CCC(=O)N5)nc4c2F)N([C@H](C)c2cccnc2N)CCO3)c1C(F)(F)F` (atropisomer, axis not shown) [Example 121, (S)-5-((((R)-9-(6-amino-4-methyl-3-(trifluoromethyl)pyridin-2-yl)-4-((R)-1-(2-aminopyridin-3-yl)ethyl)-8-chloro-10-fluoro-5,6-dihydro-4H-[1,4]oxazepino[5,6,7-de]quinazolin-2-yl)oxy)methyl)pyrrolidin-2-one], for which the IC50 in the assay on PC-9 cells turned out to be 4900 nM; at KRas(G12V), 0.07 nM; on KRas it was 0.437 nM; in the assay on SW480 cells it was 1100 nM.
For the molecule `Cc1cc(N)nc(-c2c(Cl)c3c4c(nc(OCC5(C#N)CC5)nc4c2F)N([C@H](C)c2cccnc2N)CCO3)c1C(F)(F)F` (atropisomer, axis not shown) [Example 153, 1-((((R)-9-(6-amino-4-methyl-3-(trifluoromethyl)pyridin-2-yl)-4-((R)-1-(2-aminopyridin-3-yl)ethyl)-8-chloro-10-fluoro-5,6-dihydro-4H-[1,4]oxazepino[5,6,7-de]quinazolin-2-yl)oxy)methyl)cyclopropane-1-carbonitrile], the IC50 was found to be 14000 nM in the assay on PC-9 cells, 0.78 nM on KRas(G12V), 3.3 nM on KRas and 190 nM with SW480 cells.
For `Cc1cc(N)nc(-c2c(Cl)c3c4c(nc(OC[C@]56CCN5CC(F)(F)C6)nc4c2F)N([C@H](C)c2cccnc2N)CCO3)c1C(F)(F)F` (atropisomer, axis not shown) [Example 114b, 6-((R)-4-((R)-1-(2-aminopyridin-3-yl)ethyl)-8-chloro-2-(((R)-3,3-difluoro-1-azabicyclo[3.2.0]heptan-5-yl)methoxy)-10-fluoro-5,6-dihydro-4H-[1,4]oxazepino[5,6,7-de]quinazolin-9-yl)-4-methyl-5-(trifluoromethyl)pyridin-2-amine] the same measures were 7600 nM, 0.22 nM, 0.46 nM and 3 nM.
For `Cc1cc(N)nc(-c2c(Cl)c3c4c(nc(OCC5(C#N)CCOCC5)nc4c2F)N([C@H](C)c2cccnc2N)CCO3)c1C(F)(F)F` (atropisomer, axis not shown) [Example 142, 4-((((R)-9-(6-amino-4-methyl-3-(trifluoromethyl)pyridin-2-yl)-4-((R)-1-(2-aminopyridin-3-yl)ethyl)-8-chloro-10-fluoro-5,6-dihydro-4H-[1,4]oxazepino[5,6,7-de]quinazolin-2-yl)oxy)methyl)tetrahydro-2H-pyran-4-carbonitrile] the same measures were 7700 nM, 0.31 nM, 1.1 nM and 120 nM.
For `Cc1cc(N)nc(-c2c(Cl)c3c4c(nc(OC[C@@H]5C[C@@]6(CN5C)CC6(F)F)nc4c2F)N([C@H](C)c2cccnc2N)CCO3)c1C(F)(F)F` (atropisomer, axis not shown) [Example 67, 6-((R)-4-((R)-1-(2-aminopyridin-3-yl)ethyl)-8-chloro-2-(((3S,6S)-1,1-difluoro-5-methyl-5-azaspiro[2.4]heptan-6-yl)methoxy)-10-fluoro-5,6-dihydro-4H-[1,4]oxazepino[5,6,7-de]quinazolin-9-yl)-4-methyl-5-(trifluoromethyl)pyridin-2-amine] the same measures were 2800 nM, 0.17 nM, 0.55 nM and 3.7 nM.
On to `Cc1cc(N)nc(-c2c(Cl)c3c4c(nc(OC[C@H]5CC[C@@H]6COCCCN65)nc4c2F)N([C@H](C)c2cccnc2N)CCO3)c1C(F)(F)F` (atropisomer, axis not shown; (aR)) [Example 120b, 6-((R)-4-((R)-1-(2-aminopyridin-3-yl)ethyl)-8-chloro-10-fluoro-2-(((7R,9aR)-hexahydro-1H,3H-pyrrolo[2,1-c][1,4]oxazepin-7-yl)methoxy)-5,6-dihydro-4H-[1,4]oxazepino[5,6,7-de]quinazolin-9-yl)-4-methyl-5-(trifluoromethyl)pyridin-2-amine], for which the IC50 with PC-9 cells came to 3000 nM; on KRas(G12V), 0.08 nM; against KRas, 0.2 nM; in the assay with SW480 cells, 20 nM.
As to `Cc1cc(N)nc(-c2c(Cl)c3c4c(nc(OCCO)nc4c2F)N([C@H](C)c2cccnc2N)CCO3)c1C(F)(F)F` (atropisomer, axis not shown) [Example 156, 2-(((R)-9-(6-amino-4-methyl-3-(trifluoromethyl)pyridin-2-yl)-4-((R)-1-(2-aminopyridin-3-yl)ethyl)-8-chloro-10-fluoro-5,6-dihydro-4H-[1,4]oxazepino[5,6,7-de]quinazolin-2-yl)oxy)ethan-1-ol], the IC50 in the assay with PC-9 cells turned out to be 16000 nM; against KRas(G12V), 0.19 nM; against KRas, 0.65 nM; with SW480 cells, 310 nM.
On the same counts, the results for `Cc1cc(N)nc(-c2c(Cl)c3c4c(nc(OC[C@@]56CCN5CC(F)(F)C6)nc4c2F)N([C@H](C)c2cncnc2N)CCO3)c1C(F)(F)F` (atropisomer, axis not shown) [Example 82a, 5-((R)-1-((R)-9-(6-amino-4-methyl-3-(trifluoromethyl)pyridin-2-yl)-8-chloro-2-(((S)-3,3-difluoro-1-azabicyclo[3.2.0]heptan-5-yl)methoxy)-10-fluoro-5,6-dihydro-4H-[1,4]oxazepino[5,6,7-de]quinazolin-4-yl)ethyl)pyrimidin-4-amine] are 6800 nM, 0.11 nM, 0.164 nM and 26 nM.
For `Cc1cc(N)nc(-c2c(F)c3c4c(nc(OC[C@@]56CCCN5C[C@H](F)C6)nc4c2F)N([C@H](C)c2cccnc2N)CCO3)c1C(F)(F)F` (atropisomer, axis not shown; (aS)) [Example 66a, 6-((R)-4-((R)-1-(2-aminopyridin-3-yl)ethyl)-8,10-difluoro-2-(((2R,7aS)-2-fluorotetrahydro-1H-pyrrolizin-7a(5H)-yl)methoxy)-5,6-dihydro-4H-[1,4]oxazepino[5,6,7-de]quinazolin-9-yl)-4-methyl-5-(trifluoromethyl)pyridin-2-amine] the same measures were 2800 nM, 0.05 nM, 0.12 nM and 3.1 nM.
On the same counts, the results for `C=C1CN2CCC2(COc2nc3c4c(c(Cl)c(-c5nc(N)cc(C)c5C(F)(F)F)c(F)c4n2)OCCN3[C@H](C)c2cccnc2N)C1` (stereo partly drawn) [Example 118, (6R)-6-(4-((R)-1-(2-aminopyridin-3-yl)ethyl)-8-chloro-10-fluoro-2-((3-methylene-1-azabicyclo[3.2.0]heptan-5-yl)methoxy)-5,6-dihydro-4H-[1,4]oxazepino[5,6,7-de]quinazolin-9-yl)-4-methyl-5-(trifluoromethyl)pyridin-2-amine] are 730 nM, 0.06 nM, 0.19 nM and 33 nM.

Values taken from patent US20240383915A1, “OXAZEPINE COMPOUNDS AND USES THEREOF IN THE TREATMENT OF CANCER” (Genentech, Inc., priority 2021, published 2024).
